Data published in US20030216471A1, “Retinoid formulations for aerosolization and inhalation” (priority 2003, published 2003).
“Also recorded” adds a separate entry of the source. Read-outs that look alike come from different tables or passages of the source. Marks after values point to notes of the source that are not given here.

Key:
[1] = test system: A/J mice; assay: Lung carcinogenesis model: carcinogen-treated A/J mice exposed to isotretinoin aerosols; type: in vivo, mouse; conditions: for Efficacy (Carcinogen): 10-16 weeks; for non-significant reduction of tumor multiplicity: low dose; for reduction in multiplicity of tumor nodules: mid isotretinoin dose
Excerpt: The A/J mouse is a well-established animal model for preclinical chemoprevention studies. This strain has a hereditary predisposition for lung cancer, the so-called pulmonary adenoma susceptibility (Pas) genes. A strong candidate for one of these genes, Pas-1, is the K-ras protooncogene. Carcinogenesis in this model with NNK as the inciting agent has been studied so that the times required to develop hyperplastic areas, adenomas, and carcinomas are well known. In addition, the timing of molecular changes associated with carcinogenesis has been studied and are similar to those in humans. In both species, K-ras mutations are common early events.
Powdered isotretinoin was dissolved in 100% ethanol plus 0.1% α-tocopherol and 0.1% ascorbyl palmitate to give concentrations of isotretinoin ranging from 0.1 to 10 mg/ml. The formulations were prepared monthly. The solutions were protected from light and stored at −5° C. until use. Ultraviolet-visible spectrophotometric verification of the formulated test article concentration was performed on all batches in advance of inhalation treatments with the test article solution. Only formulations within ±10% of the targeted concentration were used on study.
Within 24 h of the last inhalation exposure, animals were euthanized by intraperitoneal injection of pentobarbital and their lungs were removed and fixed in Bouin's solution or flash frozen for RAR determination. The lungs were evaluated in a blinded fashion so that neither carcinogen nor isotretinoin dose levels were known to the evaluator, who visually counted hyperplastic areas and adenomas on the lung pleural surface as previously described. The significance of the differences between the mean tumor incidence of the treatment and the control groups was determined using the Mann-Whitney Rank Sum test (Statmost TM, DataMost Corp., Sandy, Utah).

[2] = test system: RAR α; assay: RAR induction in lungs of A/J mice exposed to isotretinoin aerosol, RAR α; type: in vivo, mouse; conditions: inhaled mid dose, urethane-treated A/J mice
Protocol: (§1) Antibodies: Polyclonal antibodies to RARα, β and γ (Santa Cruz Biotechnology Inc., San Francisco, Calif.) were used with a BM Chemiluminescence Western Blotting Kit (Mouse/Rabbit) (Boehringer Mannheim Corporation, Indianapolis).
(§2) Experimental Design: Five lungs each from the urethane-treated vehicle, low dose, and mid dose animals were snap frozen in liquid nitrogen and stored at −70° C. for determination of RARs α, β and γ by Western Blot Analysis. […] The lungs were homogenized and the RARs were determined by standard Western Blotting (21, 22).
(§3) Samples: Lung tissue was collected, frozen on dry ice and kept at −70° C. until used. A 500 mg portion was diced in small pieces and homogenized in 300 μl of cold PBS using a hand held homogenizer for 2-3 min. Samples were centrifuged at 500 rpm for 5 min or until the supernatant was clear. The pellet was suspended in 400 μl of cold Buffer A [2 μl 0.5 M EDTA, 10 μl mM EGTA, 50 μl 100 mM PMSF, 10 μl 1M DTT, 10 ml (10 mM HEPES pH 7.9+10 mM KCl)], and left at ice temperature for 15 min. A 25 μl volume of 10% solution of NP−40 was added and the samples were mixed in a vortex vigorously for 10 sec. Samples were centrifuged at 14,000 rpm for 1 min at 4° C. and the pellet was treated once more in this fashion. […]

[3] = test system: RAR β; assay: RAR induction in lungs of A/J mice exposed to isotretinoin aerosol, RAR β; type: in vivo, mouse; conditions: inhaled mid dose, urethane-treated A/J mice
Protocol: as §1, §2, §3

[4] = test system: second aerodigestive tumors; conditions: oral, 1-2 mg/kg/day, previously treated head-and-neck cancer patients; cited from earlier work
[5] = molecular target: albumin (Homo sapiens, UniProt P02768); conditions: systemic administration, reported; cited from earlier work
albumin, sequence (P02768 25-609, species assumed): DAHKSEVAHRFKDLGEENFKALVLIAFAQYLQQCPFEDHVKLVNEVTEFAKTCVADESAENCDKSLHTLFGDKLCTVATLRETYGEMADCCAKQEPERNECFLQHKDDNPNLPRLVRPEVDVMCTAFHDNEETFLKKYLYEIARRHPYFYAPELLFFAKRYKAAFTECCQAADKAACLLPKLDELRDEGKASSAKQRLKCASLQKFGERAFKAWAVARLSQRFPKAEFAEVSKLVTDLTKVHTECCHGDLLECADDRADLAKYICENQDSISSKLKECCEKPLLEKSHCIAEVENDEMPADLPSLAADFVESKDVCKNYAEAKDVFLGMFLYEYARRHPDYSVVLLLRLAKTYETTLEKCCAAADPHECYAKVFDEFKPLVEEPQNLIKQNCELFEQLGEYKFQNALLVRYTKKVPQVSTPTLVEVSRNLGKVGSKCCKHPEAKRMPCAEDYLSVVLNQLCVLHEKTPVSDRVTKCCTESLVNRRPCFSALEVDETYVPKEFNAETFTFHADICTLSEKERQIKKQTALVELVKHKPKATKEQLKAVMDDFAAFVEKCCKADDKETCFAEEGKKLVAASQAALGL

[6] = BaP, weekly pulmonary dose 0.25 mg/kg
[7] = BaP, weekly pulmonary dose 4.0 mg/kg
[8] = NNK and BaP, A/J mice, inhalation
[9] = NNK, weekly pulmonary dose 0.25 mg/kg
[10] = NNK, weekly pulmonary dose 4.0 mg/kg
[11] = Urethane, weekly pulmonary dose 0.25 mg/kg
[12] = Urethane, weekly pulmonary dose 4.0 mg/kg

## CC1=C(/C=C/C(C)=C/C=C/C(C)=C\C(=O)O)C(C)(C)CCC1 [13-cis RA, 13-cis-Retinoic Acid]
BaP-Treated Mice, Day 102, High Dose
  Body Weights (Mean ± SD) (N): 19.3 ± 1.6 (12)^a,e gms
BaP-Treated Mice, Day 102, Low Dose, vehicle control 22.5
  Body Weights (Mean ± SD) (N): 21.8 ± 1.2 (21) gms
BaP-Treated Mice, Day 102, Mid Dose
  Body Weights (Mean ± SD) (N): 20.1 ± 1.8 (20)^a,b gms
NNK-Treated Mice, Day 102, High Dose
  Body Weights (Mean ± SD) (N): 17.5 ± 1.2 (14)^a,d gms
NNK-Treated Mice, Day 102, Low Dose, vehicle control 22.7
  Body Weights (Mean ± SD) (N): 22.1 ± 1.5 (21) gms
NNK-Treated Mice, Day 102, Mid Dose
  Body Weights (Mean ± SD) (N): 20.3 ± 1.2 (20)^a,b gms
Urethane-Treated Mice, Day 60, High Dose
  Body Weights (Mean ± SD) (N): 18.9 ± 1.7 (12)^a,c gms
Urethane-Treated Mice, Day 60, Low Dose, vehicle control 20.8
  Body Weights (Mean ± SD) (N): 21.0 ± 1.2 (21) gms
Urethane-Treated Mice, Day 60, Mid Dose
  Body Weights (Mean ± SD) (N): 20.7 ± 1.5 (21) gms
High dose, daily exposures during first two weeks, listed as isotretinoin
  toxicity: excessive toxicity to the snout and forelimbs; also recorded: severe toxicity
High dose, daily exposures for the first two weeks
  mice that died: ~35%
Low dose
  side effects: without any evidence of side effects
Mid dose
  mice that died before the end of exposure: 3%
  time until which dose was tolerated (mice then began losing weight): ~12 wks
Mid dose, NNK- and BaP-treated mice
  weights below those of vehicle controls at the end of exposure: 11%
[1]; 0.24 mg/kg weekly total deposited (inh), NNK, BaP, Maybe = trend for efficacy
  Efficacy (Carcinogen): Maybe
[1]; 0.24 mg/kg weekly total deposited (inh), urethane
  Efficacy (Carcinogen): No
[1]; 1.6 mg/kg weekly total deposited (inh), NNK, BaP
  Efficacy (Carcinogen): Yes
[1]; 1.6 mg/kg weekly total deposited (inh), urethane
  Efficacy (Carcinogen): No
[1]; 24.9 mg/kg weekly total deposited (inh), urethane, NNK, BaP
  Efficacy (Carcinogen): Yes (urethane, NNK, BaP)
[1]; BaP, weekly pulmonary dose 0.04 mg/kg, vehicle control 0.2
  Hyperplastic Areas Per Lung Set (Mean ± SE): 0.8 ± 0.3
[1]; BaP, weekly pulmonary dose 0.04 mg/kg, vehicle control 9.0
  Tumors Per Lung Set (Mean ± SE): 6.4 ± 0.7^f
[1]; BaP, weekly pulmonary dose 0.04 mg/kg, vehicle control 9.2
  Total Lesions Per Lung Set (Mean ± SE): 7.2 ± 0.8
[1]; [6]
  Hyperplastic Areas Per Lung Set (Mean ± SE): 3.2 ± 0.4^d
  Total Lesions Per Lung Set (Mean ± SE): 6.1 ± 0.5^b
  Tumors Per Lung Set (Mean ± SE): 3.0 ± 0.5^d
[1]; [7]
  Hyperplastic Areas Per Lung Set (Mean ± SE): 3.3 ± 0.9^d
  Total Lesions Per Lung Set (Mean ± SE): 5.2 ± 1.0^b
  Tumors Per Lung Set (Mean ± SE): 1.8 ± 0.5^d
[1]; [8]
  weekly pulmonary dose with evidence of efficacy (as low as): 0.25 mg/kg
  weekly pulmonary dose with suggested efficacy: 0.04 mg/kg
[1]; NNK, weekly pulmonary dose 0.04 mg/kg, vehicle control 1.3
  Hyperplastic Areas Per Lung Set (Mean ± SE): 2.0 ± 0.4
[1]; NNK, weekly pulmonary dose 0.04 mg/kg, vehicle control 2.5
  Tumors Per Lung Set (Mean ± SE): 2.1 ± 0.3^e
[1]; NNK, weekly pulmonary dose 0.04 mg/kg, vehicle control 3.8
  Total Lesions Per Lung Set (Mean ± SE): 4.1 ± 0.6
[1]; [9]
  Hyperplastic Areas Per Lung Set (Mean ± SE): 3.3 ± 0.3^d
  Total Lesions Per Lung Set (Mean ± SE): 3.6 ± 0.3
  Tumors Per Lung Set (Mean ± SE): 0.3 ± 0.2^d
[1]; [10]
  Hyperplastic Areas Per Lung Set (Mean ± SE): 3.8 ± 0.6^c
  Total Lesions Per Lung Set (Mean ± SE): 4.5 ± 0.7
  Tumors Per Lung Set (Mean ± SE): 0.8 ± 0.3^d
[1]; Urethane, weekly pulmonary dose 0.04 mg/kg, vehicle control 4.6
  Hyperplastic Areas Per Lung Set (Mean ± SE): 3.6 ± 1.1
[1]; Urethane, weekly pulmonary dose 0.04 mg/kg, vehicle control 24.2
  Tumors Per Lung Set (Mean ± SE): 25.7 ± 1.7
[1]; Urethane, weekly pulmonary dose 0.04 mg/kg, vehicle control 29.2
  Total Lesions Per Lung Set (Mean ± SE): 29.3 ± 1.5
[1]; [11]
  Hyperplastic Areas Per Lung Set (Mean ± SE): 5.9 ± 1.2
  Total Lesions Per Lung Set (Mean ± SE): 32.2 ± 2.4
  Tumors Per Lung Set (Mean ± SE): 26.4 ± 2.1
[1]; [12]
  Hyperplastic Areas Per Lung Set (Mean ± SE): 5.3 ± 1.3
  Total Lesions Per Lung Set (Mean ± SE): 15.9 ± 1.9^d
  Tumors Per Lung Set (Mean ± SE): 10.6 ± 1.2^d
[1]; low (lowest) isotretinoin dose
  effect of treatment on numbers of tumors: not affected by treatment at the 95% confidence level; also recorded: not significantly effective
[1]; BaP-treated mice (p<0.13)
  non-significant reduction of tumor multiplicity: 30%
[1]; NNK-treated mice (p<0.30)
  non-significant reduction of tumor multiplicity: 16%
[1]; BaP-treated mice
  reduction in multiplicity of tumor nodules: 67%
[1]; NNK-treated mice
  reduction in multiplicity of tumor nodules: 88%
[2]
  upregulation of lung tissue RAR α over solvent (vehicle): 3.9 fold
[3]
  upregulation of lung tissue RAR β over solvent (vehicle): 3.3 fold
[4]
  protection against second aerodigestive tumors: significantly protective
[5]
  present as albumin bound: 99%
